Experimental data: patent US20060014723A1, “Anti-parasitic uses of borinic acid complexes” (priority 2004, published 2006)
Converted amounts (≈) assume the structure as drawn.

Key:
[1] = system: Leishmania donovani strain MHOM/ET1671L82; assay: Leishmaniasis in vitro screening model (axenic amastigotes, Alamar Blue); type: cell-based
In short: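 Axenic L. donovani amastigotes (10^5 per well) from hamster spleen, grown at 37° C in SM medium pH 5.4 with 10% FBS, 5% CO2, exposed to serial 3-fold compound dilutions (30 to 0.041 μg/mL) for 72 h. Alamar Blue added for 2 h, fluorescence read (ex 536/em 588 nm); IC50 from sigmoidal curve versus control cultures.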

P. Berghei = assay: In vivo efficacy mouse malaria model; settings: 2×/day
Protocol: Test compounds will be compared to chloroquine, artemisinin, mefloquine as follows: NMRI mice, SPF, females, […]
From a donor mouse with approximately 30% parasitemia, heparinized blood is taken and diluted in physiological saline to 10^8 parasitized erythrocytes per mL. An aliquot of 0.2 mL (=2×10^7 parasitized erythrocytes) of this suspension is injected intravenously (i.v.) into experimental groups of 4 mice.
Two-to-four hours post-infection, the experimental groups are treated with a single dose by the subcutaneous or the oral route. The compounds are prepared at an appropriate concentration, as a solution or suspension containing 3% ethanol and 7% Tween 80 or in SSV (standard suspending vehicle): […]
Twenty-four hours after the last treatment ([…]) blood smears from all animals are prepared and stained with Giemsa. Parasitemia is determined microscopically by counting 400 red blood cells (“rbcs”), for low parasitemias (<1%) up to 4,000 rbc's have to be counted. The difference between the mean value of the control group (taken as 100%) and those of the experimental groups is calculated and expressed as % Reduction where: [formula]
Additional smears will be taken on day 5 and day 6; and parasitemia will be determined and the activity calculated. Survival time (in days) is recorded, and the mean survival time is calculated. Adverse effects are recorded. Four mice/compound and a minimum of 12 mice/study (vehicle and positive controls run concurrently) are used.

[2] = system: Trypanosoma cruzi Tulahuen C2C4 strain; assay: Chagas disease in vitro screening model (beta-galactosidase strain in L-6 cells); type: cell-based
In short: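 L-6 rat myoblasts in RPMI 1640/10% FBS at 37 °C were infected with 5×10^3 lacZ-expressing T. cruzi Tulahuen C2C4 trypomastigotes. CPRG/Nonidet substrate was read at 540 nm, and IC50 came from sigmoidal curves.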

## CC1(C)COC(c2cccc(B(Oc3cccc4cccnc34)c3cccc(C4=NC(C)(C)CO4)c3)c2)=N1 [Compound 13, Bis[3-(4,5-dihydro-4,4-dimethyloxazol-2-yl)phenyl]borinic acid 8-hydroxyquinoline ester]
[1]
  L. donovani IC50: 0.82 µg/mL
P. Berghei; 4 × 30 mg/kg, s.c.
  % of Activity: 52.31%
  Mean Survival: 15.3 days
  Parasitized RBC over 100 % of Control: 47.09%
  Parasitized RBC over 100 Mean: 11.9
P. Berghei; 4 × 100 mg/kg, p.o.
  % of Activity: 81.29%
  Mean Survival: 12.7 days
  Parasitized RBC over 100 % of Control: 18.78%
  Parasitized RBC over 100 Mean: 4.7
[2]
  T. cruzi IC50: 8.7 µg/mL

## COc1ccc(B(Oc2cccc3cccnc23)c2cccc(Cl)c2)cc1OC [Compound 27, (3-Chlorophenyl)(3,4-dimethoxyphenyl)borinic acid quinolin-8-yl ester]
[1]; Leishmania donovani, read-out: L. donovani IC50
  IC50: 0.47 µg/mL (≈ 1.16 µM)
P. Berghei; 4 × 100 mg/kg, s.c.
  % of Activity: 68.09%
  Mean Survival: 18.7 days
  Parasitized RBC over 100 % of Control: 31.91%
  Parasitized RBC over 100 Mean: 7.9
P. Berghei; 4 × 300 mg/kg, p.o.
  % of Activity: 56.94%
  Mean Survival: 15.7 days
  Parasitized RBC over 100 % of Control: 43.08%
  Parasitized RBC over 100 Mean: 10.7
[2]; Trypanosoma cruzi, TULAHUEN, L6, read-out: T. cruzi IC50
  IC50: 3.2 µg/mL (≈ 7.93 µM)
